Reference: article PMC10571957, “αV-Integrin-Dependent Inhibition of Glioblastoma Cell Migration, Invasion and Vasculogenic Mimicry by the uPAcyclin Decapeptide” (Cancers, 2023)
Where “and” joins values, the source holds several entries; their conditions need not be identical. Equal values may be shown once.

Tests used:
[1] = tested on: U87-MG cells (αV integrin); assay: FITC-uPAcyclin receptor binding/competition, U87-MG; parameters: species or system human; settings: for FITC-uPAcyclin binding, single values: T-test sheet, single replicates of all EXPTs
Procedure: The U87-MG, U251-MG, and U138-MG cell lines were harvested and acid-treated, as described. Then, 2 × 10^6 cells/sample were exposed for 30 min at 4 °C to uPAcyclin or S-uPAcyclin at the indicated concentrations, or with the following antibodies: VNR147 monoclonal anti-αV integrin (Chemicon Int. Inc., Temecula, CA, USA), polyclonal anti-αV (Millipore, Burlington, MA, USA), monoclonal anti-α2 (Chemicon Int. Inc., Temecula, CA, USA), polyclonal anti-actin (Sigma-Aldrich, St. Louis, MO, USA), monoclonal anti-GAPDH (Abcam, Cambridge, UK), and purified vitronectin (VN, Corning, Glendale, AZ, USA). The cells were subsequently incubated with 50 nM FITC-uPAcyclin for 2 h at 4 °C, as described. At the end of incubation, the cells were washed and the cell surface-associated fluorescence was determined using a fluorimeter (VICTOR^TM X3-PerkinElmer, Waltham, MA, USA). All binding assays were performed three times, with duplicate samples, and analyzed as described in Section 2.11.
Figure 2 αV expression of U87-MG, U251-MG, and U138-MG GBM cells and specific binding of FITC-uPAcyclin. (A) U87-MG, U251-MG, U138-MG, HEK-293, and HEK-293/αV total cell lysates were subjected to Western blotting and probed using polyclonal anti-αV or polyclonal anti-actin as loading control. (B) A total of 2 × 10^6 U87-MG, U251-MG, U138-MG, HEK-293/αV, or HEK-293 cells were pre-incubated for 30 min at 4 °C with 500 nM uPAcyclin and further exposed to 50 nM FITC-uPAcyclin for 2 h at 4 °C. At the end of the incubation, the unbound material was washed and cell-associated FITC-uPAcyclin was quantitated by a fluorimeter. The net value of cell-surface-associated fluorescence, corresponding to the specific binding, is shown. (C) A total of 2 × 10^6 U87-MG, U251-MG, and U138-MG cells were pre-incubated for 30 min at 4 °C with increasing concentrations of unlabeled uPAcyclin and then assayed for binding of FITC-uPAcyclin, for 2 h at 4 °C. Cell-surface-associated fluorescence, as percentage of the samples […], is shown. (D) U87-MG cells were pre-incubated with uPAcyclin (1 pM, 100 nM), scrambled uPAcyclin (S-uPAcyclin, 1 pM and 100 nM)), vitronectin (200 µM), anti-αv polyclonal (anti-αV Pclonal, 5 µg/mL) or monoclonal (anti-αV MoAb, 5 µg/mL) or anti-α2 monoclonal (anti-α2 MoAb, 1 µg/mL), polyclonal anti-actin, and monoclonal anti GAPDH. Then, cells were treated as in B (* p-value < 0.05; *** p-value < 0.001).

[2] = tested on: U87-MG cells; assay: Vasculogenic mimicry (tube formation on Geltrex), U87-MG; assay type: cell-based, human; settings: for reduction in branching points: 24 h, Geltrex
Procedure: The tube formation assay was performed in 96-well plates pre-coated with 50 µL/well of Geltrex^TM (Thermofisher, Scientific, Waltham, MA, USA), and polymerized for 30 min at 37 °C. Briefly, 3 × 10^4 U87-MG, 1.5 × 10^4 U251, and 1 × 10^4 C6 cells/100µL/well were plated onto Geltrex^TM and monitored at 37 °C for the indicated times. The specific effectors were included at time 0. The formation of vascular-like structures by Geltrex^TM-plated U87-MG and U251-MG cells was monitored for 24 h, whereas C6 cells were tested for 16 h. The evaluation of the branching point number, defined as the intersection of at least 3 tubes [24], was performed using the Inverted Microscope DMI Leica 6000 for the U87-MG and U251-MG cells and the Inverted Microscope Axiovert 25 for the C6 cells. At the indicated times, the number of “branching points” was assessed in 4/5 random fields using the ImageJ 1.52a Software.
Figure 6 Vascular mimicry formation by U87-MG and effect of uPAcyclin. (A) Representative images of U87-MG cells pre-treated or not (untreated) for 40 min at 37 °C with uPAcyclin (1 nM and 100 nM) and then plated onto Geltrex^TM in multiwell-96 (3 × 10^4/well). As a control, cells were grown in the presence of DMEM/10% FBS (No matrix) or with Geltrex^TM (Untreated, Untd). Images are taken at 24 h using the Inverted Microscope DMI Leica 6000 with 50× total magnification, scale bar: 75 µm. (B) The quantitation of branching points, defined as the intersection of at least three tubes [24], was performed at 4, 8, and 24 h either in control cells and cells pre-treated for 40 min at 37 °C with 10 pM, 1 nM, and 100 nM uPAcyclin before plating onto Geltrex^TM. (C) U87-MG cells were pre-treated with uPAcyclin or with S-uPAcyclin, at the indicated concentrations, plated onto Geltrex^TM and, 24 h later, the number of branching points was evaluated and reported in the histogram (* p-value < 0.05; ** p-value < 0.005; *** p-value < 0.001).

| Substance | FITC-uPAcyclin binding, single values ([1]; competitor 1 pM) | FITC-uPAcyclin binding, single values ([1]; competitor 100 nM) | Kdapp ([1]; unlabeled uPAcyclin vs FITC-uPAcyclin, U87-MG, 4 °C) | branching point number, in words ([2]; 10 pM, 10 nM (legend: 1 nM), 100 nM, U87-MG, 4, 8, 24 h) | reduction in branching points ([2]; 1 nM, U87-MG) | VM formation by time-lapse videomicroscopy, in words ([2]; 100 nM, U87-MG, 14 h, serum-free) | reduction in branching points ([2]; 100 nM, U87-MG) | competition with FITC-uPAcyclin binding, in words ([1]; U87-MG, S-uPAcyclin 1 pM and 100 nM, vitronectin 200 µM, anti-αV 5 µg/mL, anti-α2 1 µg/mL) | FITC-uPAcyclin binding, single values ([1]; competitor 1 pM, listed as Scrambled uPAcyclin) | FITC-uPAcyclin binding, single values ([1]; competitor 100 nM, listed as Scrambled uPAcyclin) | reduction in branching points ([2]; scrambled control, U87-MG) |
| --- | --- | --- | --- | --- | --- | --- | --- | --- | --- | --- | --- |
| Ac-K^1P[ESPPEELK^10]-NH2 (sidechain bridge or staple) [uPAcyclin] | 70 and 77 and 74 and 75 | 38 and 42 and 49 and 44 and 54 | low nanomolar range | concentration-dependent reduction in the branching point number | approximately 60% | inhibited and delayed | approximately 60% |  |  |  |  |
| Ac-PS[EELKPEPK]-NH2 (sidechain bridge or staple) [S-uPAcyclin, scrambled control peptide] |  |  |  |  |  |  |  | retains very little binding ability | 85 and 88 and 80 and 75 | 74 and 80 and 82 and 75 | approximately 20% |
